# Data: patent publication US10188601B2, “Continuous long-term controlled release of telomerase inhibitors” (priority 2013, dated 2019)
# How the values were obtained:
# telomerase = conditions: L428 cells, 24 h incubation, graded concentrations; Pd tag versus H2 tag
# Experimental: L428 cells were incubated for 24 h with graded concentrations of PdTMPyP4 or H2TMPyP4 dissolved in RPMI 1640 complete medium. The activation or inhibition of telomerase was measured using the Telomeric Repeat Amplification Protocol (TRAP) assay. The procedure is detailed in Tichon A, et al, Cytotherapy. 2009; 11:837-48.
# [1] = tested on: L428 Hodgkin's lymphoma cells
# Description: In these experiments, PdTMPyP4/PLGA rods, manufactured as described in the Example 1, were used to release and maintain the continuous exposure of exponentially-growing L428 Hodgkin's Lymphoma cells to PdTMPyP4 throughout the 8 day experiment. To maintain and encourage exponential growth, cells were split before they neared their maximum density 1.5×10^6 cells/ml. Precautions were taken, in advance, to prevent the dilution of the drug during cell splitting by placing the rods into the medium that would be used when splits were required. Cells were initially seeded into each of 3 different treatment flasks at a cell density of 3.0×10^5 cells/ml in a volume of 25 ml. The cultures were split at 120 and 192 hours. The flasks consisted of:
# Fourteen ‘medium-transfer’ flasks were prepared in advance for use during the splitting of the flasks. Twelve (6 each) of these contained 25 ml of complete medium and either 2 PdTMPyP4/PLGA rods or 2 blank PLGA rods.
# Two additional flasks contained 25 ml conditioned medium were prepared in advance, by removing from previously grown cells and sterilizing, and whereto either PdTMPyP4/PLGA or 2 PLGA rods were added. This approach permitted the same exponential growth conditions for all treatments even when the flasks were split.
# When cells in either flask A, B, or C neared their maximum cell density and required splitting, all flasks were split at this same time and medium from the transfer flasks was added to both the original and new flasks to restore the volume to 25 ml. A 3-ml aliquot of cells was removed from the flasks containing the suspension cells and was counted on a daily basis using a hemocytometer and trypan blue exclusion. The volume removed was replaced with the pretreated medium. […] Cells in each of the split dishes were counted, and counts from all flasks were combined to yield the total number of cells. By combining the cell counts from the split flasks, and using the total cell number, technical errors in counting the cells from the different flasks were reduced.
# [2] = In vitro release of PdTMPyP4 from PLGA rods over time in normal saline; type: physicochemical
# Experimental: Eight rods, two each of matching weights, were placed in individual Eppendorf tubes with 1 ml of normal saline and incubated at 37° C. For measuring PdTMPyP4 release via absorbance, a 10 μl sample were removed and diluted 1:100 with DDW, and absorbance of the resulting solution measured in the spectrophotometer at 415 nm for the first 28 days. […] The removal of a 10 μl sample from the fresh saline solution required a 1:10 dilution in DDW for appropriate reading. […] To compare the release of PdTMPyP4 after the various dilutions, the concentrations were normalized to the dilution factor used during the first 28 days (1:100).
# cellular DNA = tested on: cellular DNA
# Experimental: PdTMPyP4 was dissolved directly into medium as described above. After incubation with graded concentrations of PdTMPyp4 added to the medium for 24 or 48 h, the DNA was extracted and digested. […] Details of the methods used to extract the DNA fraction and prepare the samples for ICP-MS are given in Laster B H, et al. Brachytherapy. 2009; 8:324-30.
# [3] = single rod per tumor
# Description: One PdTMPyP4 rod, prepared according to the Example 1, was implanted into the KHJJ tumor of each of 4 mice as described in the Example 7 above.
# Blood was withdrawn from the junction of the submandibular/facial vein, centrifuged, and the clear supernatant removed, diluted 1:100 and measured in double-distilled water (DDW) as described in the Example 10 below.
smiles,measurement,setting,value
"C[n+]1ccc(-c2c3nc(c(-c4cc[n+](C)cc4)c4ccc([n-]4)c(-c4cc[n+](C)cc4)c4nc(c(-c5cc[n+](C)cc5)c5ccc2[n-]5)C=C4)C=C3)cc1.[Pd+2] [PdTMPyP4, Palladium-tagged tetra (4-N-methylpyridyl) porphyrin]",telomerase activity inhibition,telomerase,superior inhibition
same,time of sudden decrease in cells exposed,"[1]; 19-day experiment, continuous release from PLGA rods",about 200 h
same,factor by which cell number was lower than with the other treatments,"[1]; 19-day experiment, from about 200 h through remaining 11 days",5-6 times
same,cell number compared to the other treatments at end of experiment,"[1]; 8 day experiment, 264 h, versus untreated and blank PLGA",lower
same,time to L428 cell lethality after telomerase inhibition,[1]; continuous exposure via rods,about 8 days
same,duration of gradual and continuous release,[2],> 30 days
same,effect of Pd tag on DNA uptake of the porphyrin,cellular DNA; compared with naive TMPyP4,does not alter DNA uptake
same,uptake in DNA converted to moles,cellular DNA; incubation 24 or 48 h with graded concentrations,about 1.7×10^−14 mol
same,measured uptake of Pd atoms in the DNA of the cell,"cellular DNA; incubation 24 or 48 h with graded concentrations, ICP-MS",about 10^9 Pd atoms
same,plasma levels by the second and third week,[3],restoration of plasma levels to that on day 0
same,PdTMPyP4 concentration in blood plasma,"[3]; four mice, weekly measurements",negligible concentrations
